# Data published in PMC8158513, “Bio-Distribution and Pharmacokinetics of Topically Administered γ-Cyclodextrin Based Eye Drops in Rabbits” (Pharmaceuticals, 2021).
# Key:
# [1] = Blood-plasma PK after topical eye drop administration; conditions: for concentration at 6 h: Plasma concentration at 6 h
# Experimental: (§1) A total number of 59 rabbits were included in this part of the study. All rabbits were consecutively assigned to one of the two study groups. […] Group 2 animals were dosed with 0.15% candesartan eye drops, while 23 rabbits received a single dose and 5 rabbits received multiple doses of the eye drops. Single dose rabbits of both groups were additionally randomized to one of five euthanasia time points: 0.5 h ± 5 min, 1.5 h ± 5 min, 3 h ± 10 min, 6 h ± 15 min or 12 h ± 30 min after instillation. In all animals, 35 μL of the study drug were instilled in the conjunctival sac of the right eye with a calibrated pipette using single-use dispensers. Single dose animals were instilled only once while multiple dose animals were instilled twice daily for a total of 5 days. In all animals only the right eye was treated. To assess drug concentrations, eyes were enucleated at the end of the study period. Before enucleation, rabbits were euthanized in deep anesthesia (ketamine 60 mg/kg, xylazine 16 mg/kg, s.c.) by an intravenous over-dose of pentobarbitone sodium (300 mg/kg i.v.) and enucleation was performed immediately after euthanasia. Single dose animals were enucleated at one of the five specified time-points. Multiple dose animals were euthanized 1 h ± 30 min after the last drug administration. From each animal both eyes were enucleated and stored at −80 °C. For separation of the different ocular tissues, the eyeball was removed from −80 °C storage and corneal tissue, aqueous humor, vitreous humor and retinal/choroidal tissue were dissected. The tissues were collected separately in individual tubes, which were weighed and then stored at −80 °C.
# A venous blood sample of 2 mL was collected from the saphenous vein before the (first) drug administration and prior to euthanasia to determine systemic drug exposure at baseline and after drug administration. The blood was centrifuged for 10 min at a temperature of 10 °C and a speed of 3000 rpm. The resulting supernatant was separated and stored in a tube at −80 °C until further processing.
# (§2) Both, the eye-tissue and plasma samples were shipped to Nucro-Technics (Nucro-Technics, 2000 Ellesmere Road, Unit #16, Scarborough, ON, Canada) for quantitative analysis. For this purpose, a new liquid chromatography/tandem mass spectrometry method for simultaneous quantification of candesartan and irbesartan in rabbit eye tissues including cornea, aqueous humor, vitreous body and retina was developed. The exact method and validation are described in detail elsewhere.
# (§3) This study was designed to assess pharmacokinetics and local tolerability, no formal sample size calculation has been performed. Descriptive statistics was used for all quantitative data to describe drug concentrations after the single and multiple dosing in the different tissues. […] For pharmacokinetic calculations Phoenix WinNonlin 8.1 (Certara, Princeton, NJ, USA) was used, and the statistical analysis was done using CSS Statistica 6.0 (Tulsa, OK, USA).
# (§4) To facilitate calculation of the PK parameters, a plausibility check was performed and values below the lower limit of quantification (BLOQ; plasma: <0.05 ng/mL; tissue: <5 ng/g (irbesartan), <2 ng/g (candesartan)) were set to 0. […] All baseline plasma sample values were set to zero.
# [2] = biological target: angiotensin II receptor (AT1 subtype); conditions: cited from earlier work
# [3] = Single-dose ocular bio-distribution and pharmacokinetics of topical γCD based eye drops (LC-MS/MS of ocular tissues); conditions: for Cmax / Tmax: topical or ocular
# Experimental: as §1, §2, §3, §4
# [4] = Pre-formulation studies (γCD complexation, physicochemical parameters)
# Experimental: Pre-formulation studies with different candesartan (0.1–0.2%) and irbesartan (1.0–2.0%) concentrations were performed to find the optimal drug concentration for the animal experiments.
# [5] = Multiple-dose ocular bio-distribution (twice daily for 5 days, tissues 1 h after last dose); conditions: New Zealand White, rabbit, topical, 35 µL
# Experimental: as §1, with “Single dose animals were enucleated at one of the five specified time-points. Multiple dose animals were euthanized 1 h ± 30 min after the last drug administration. From each animal both eyes were enucleated and stored at −80 °C. For separation of the different ocular tissues, the eyeball was removed from −80 °C storage and corneal tissue, aqueous humor, vitreous humor and retinal/choroidal tissue were dissected. The tissues were collected separately in individual tubes, which were weighed and then stored at −80 °C.” left out
# as §2, with “The exact method and validation are described in detail elsewhere.” left out
# This study was designed to assess pharmacokinetics and local tolerability, no formal sample size calculation has been performed. Descriptive statistics was used for all quantitative data to describe drug concentrations after the single and multiple dosing in the different tissues. […]
# To facilitate calculation of the PK parameters, a plausibility check was performed and values below the lower limit of quantification (BLOQ; plasma: <0.05 ng/mL; tissue: <5 ng/g (irbesartan), <2 ng/g (candesartan)) were set to 0. […]
# [6] = New Zealand White, rabbit, plasma, topical or ocular, 35 µL
# [7] = New Zealand White, rabbit, in vivo, topical or ocular
# [8] = New Zealand White, rabbit, in vivo
structure (smiles),measurement,setting,value
CCOc1nc2cccc(C(=O)O)c2n1Cc1ccc(-c2ccccc2-c2nnn[nH]2)cc1 [candesartan],Cmax,[1]; [6],4.32 ± 1.04 ng/mL
same,Tmax,[1]; [6],30 min
same,half-life,[1]; [6],584 min
same,concentration at 1 h after last dose,"[1]; New Zealand White, rabbit, plasma, topical, 35 µL, Mean plasma levels (Cmean) after the last dose, multiple doses twice daily for 5 days",4.78 ± 1.48 ng/mL
same,Plasma AUC,"[1]; single topical administration, AUC 0 h-12 h",8.75 (ng/mL)*h
same,IC50,[2],400 pM
same,Cmax,"[3]; New Zealand White, rabbit, aqueous humor, treated study eye, 35 µL, Cmax SE, aqueous humor (AH), single dose, study eye, mean ± SD, also published separately [20]",30 ± 14 ng/g
same,Tmax,"[3]; New Zealand White, rabbit, aqueous humor, treated study eye, 35 µL, Tmax SE, aqueous humor (AH), single dose, study eye, also published separately [20]",180 min
same,Cmax,"[3]; New Zealand White, rabbit, aqueous humor, untreated control eye, 35 µL, Cmax CE, aqueous humor (AH), single dose, control eye, also published separately [20]",< 2 ng/g
same,Cmax,"[3]; New Zealand White, rabbit, corneal tissue, treated study eye, 35 µL, Cmax SE, corneal tissue (CT), single dose, study eye, mean ± SD, also published separately [20]",3500 ± 801 ng/g
same,Tmax,"[3]; New Zealand White, rabbit, corneal tissue, treated study eye, 35 µL, Tmax SE, corneal tissue (CT), single dose, study eye, also published separately [20]",90 min
same,Cmax,"[3]; New Zealand White, rabbit, corneal tissue, untreated control eye, 35 µL, Cmax CE, corneal tissue (CT), single dose, control eye, mean ± SD, also published separately [20]",2 ± 4 ng/g
same,Tmax,"[3]; New Zealand White, rabbit, corneal tissue, untreated control eye, 35 µL, Tmax CE, corneal tissue (CT), single dose, control eye, also published separately [20]",30 min
same,Cmax,"[3]; New Zealand White, rabbit, retinal tissue, 35 µL, Retinal tissue single dose Cmax in molar units, single dose, assuming molar weight 428.54 g/mol irbesartan, 440.45 g/mol candesartan",144 nM
same,Cmax,"[3]; New Zealand White, rabbit, retinal/choroidal tissue, treated study eye, 35 µL, Cmax SE, retinal(choroidal) tissue (RT), single dose 35 μL topical, mean ± SD",63 ± 39 ng/g
same,Tmax,"[3]; New Zealand White, rabbit, retinal/choroidal tissue, treated study eye, 35 µL, Tmax SE, retinal tissue (RT), single dose, study eye",≤ 30 min
same,half-life,"[3]; New Zealand White, rabbit, retinal/choroidal tissue, treated study eye, topical, 35 µL",323 min
same,Cmax,"[3]; New Zealand White, rabbit, retinal/choroidal tissue, untreated control eye, 35 µL, Cmax CE, retinal tissue (RT), single dose, mean ± SD",< 2 ng/g
same,Tmax,"[3]; New Zealand White, rabbit, retinal/choroidal tissue, untreated control eye, 35 µL, Tmax CE, retinal tissue (RT), single dose, control eye",30 min
same,Cmax,"[3]; New Zealand White, rabbit, vitreous humor, treated study eye, 35 µL, Cmax SE, vitreous humor (VH), single dose, study eye, mean ± SD",< 2 ng/g
same,Tmax,"[3]; New Zealand White, rabbit, vitreous humor, treated study eye, 35 µL, Tmax SE, vitreous humor (VH), single dose, study eye",30 min
same,Cmax,"[3]; New Zealand White, rabbit, vitreous humor, untreated control eye, 35 µL, Cmax CE, vitreous humor (VH), single dose, control eye",< 2 ng/g
same,"Cmax CE, vitreous humor (VH)","[3]; single dose, control eye",below the respective lower quantification limit
same,Time of maximum retinal drug concentration after single administration,"[3]; single dose, retina",30 min
same,Retinal tissue AUC,"[3]; single dose, study eye, AUC 0 h-12 h",210 ng·h/g
same,"Cmax SE, vitreous humor (VH)","[3]; single dose, study eye, mean ± SD",<2 ng/g
same,Complexing efficiency of the γCD complex,[4]; compared with irbesartan,lower
same,concentration at 1 h after last dose,"[5]; retinal tissue, Retinal tissue Cmean in molar units, multiple dose, assuming molar weight 428.54 g/mol irbesartan, 440.45 g/mol candesartan",82 nM
same,concentration at 1 h after last dose,"[5]; retinal/choroidal tissue, treated study eye, Cmean retinal tissue (RT), SE, multiple doses twice daily 5 days, 1 h ± 30 min after last dose, study eye, mean ± SD",36 ± 10 ng/g
same,concentration at 1 h after last dose,"[5]; vitreous humor, treated study eye, Cmean vitreous humor (VH), SE, multiple doses, 1 h after last dose, study eye",< 2 ng/g
CCCCC1=NC2(CCCC2)C(=O)N1Cc1ccc(-c2ccccc2-c2nnn[nH]2)cc1 [irbesartan],concentration at 6 h,"[1]; New Zealand White, rabbit, in vivo, mean of the other concentrations (outlier excluded)",1.16 ng/mL
same,concentration at 6 h,"[1]; New Zealand White, rabbit, in vivo, single value defined as outlier",65.2 ng/mL
same,Cmax,[1]; [7],5.64 ± 4.08 ng/mL
same,Tmax,[1]; [7],30 min
same,half-life,[1]; [7],1060 min
same,Plasma AUC,"[1]; rabbit, in vivo, topical or ocular",17.64 (ng/mL)*h
same,IC50,[2],1300 pM
same,Retinal tissue AUC,[3]; [8],941 ng·h/g
same,Retinal tissue AUC relative to the corresponding candesartan AUC,[3]; [8],around 4.5 times
same,Time of maximum retinal drug concentration after single administration,[3]; [8],30 min
same,concentration at 0.5 h,[3]; [8],14 ± 16 ng/g
same,half-life,[3]; [8],199 min
same,Cmax,"[3]; New Zealand White, rabbit, in vivo, Cmax CE, aqueous humor (AH)",< 5 ng/g
same,Cmax,"[3]; New Zealand White, rabbit, in vivo, Cmax CE, corneal tissue (CT)",49 ± 85 ng/g
same,Cmax,"[3]; New Zealand White, rabbit, in vivo, Cmax CE, retinal tissue (RT)",23 ± 34 ng/g
same,Cmax,"[3]; New Zealand White, rabbit, in vivo, Cmax CE, vitreous humor (VH)",< 5 ng/g
same,Cmax,"[3]; New Zealand White, rabbit, in vivo, Cmax SE, aqueous humor (AH)",121 ± 69 ng/g
same,Cmax,"[3]; New Zealand White, rabbit, in vivo, Cmax SE, corneal tissue (CT)",3660 ± 988 ng/g
same,Cmax,"[3]; New Zealand White, rabbit, in vivo, Cmax SE, retinal(choroidal) tissue (RT)",251 ± 142 ng/g
same,Cmax,"[3]; New Zealand White, rabbit, in vivo, Cmax SE, vitreous humor (VH)",14 ± 16 ng/g
same,Tmax,"[3]; New Zealand White, rabbit, in vivo, Tmax CE, aqueous humor (AH)",30 min
same,Tmax,"[3]; New Zealand White, rabbit, in vivo, Tmax CE, corneal tissue (CT)",90 min
same,Tmax,"[3]; New Zealand White, rabbit, in vivo, Tmax CE, retinal tissue (RT)",30 min
same,Tmax,"[3]; New Zealand White, rabbit, in vivo, Tmax CE, vitreous humor (VH)",30 min
same,Tmax,"[3]; New Zealand White, rabbit, in vivo, Tmax SE, aqueous humor (AH)",180 min
same,Tmax,"[3]; New Zealand White, rabbit, in vivo, Tmax SE, corneal tissue (CT)",90 min
same,Tmax,"[3]; New Zealand White, rabbit, in vivo, Tmax SE, retinal tissue (RT)",≤ 30 min
same,Tmax,"[3]; New Zealand White, rabbit, in vivo, Tmax SE, vitreous humor (VH)",30 min
same,"Cmax CE, vitreous humor (VH)","[3]; rabbit, in vivo",below the respective lower quantification limit
same,Affinity for the γCD cavity,"[4]; among telmisartan, olmesartan, irbesartan and candesartan",highest affinity
